Assay results from patent US9359308B2, “Pyrazine kinase inhibitors” (Portola Pharmaceuticals, Inc., priority 2011, dated 2016).

Each molecule was assayed against T1, full length active recombinant SYK enzyme (Homo sapiens, UniProt P43405) (assay: Inhibition of Syk tyrosine phosphorylation activity (LANCE TR-FRET kinase assay)). Conditions: activity in the Syk assays, class symbols.
T1 construct: full length active recombinant SYK enzyme (Millipore, Calif.); purchased Millipore
Format: biochemical
Outline: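 IC50 was derived by non-linear regression of TR-FRET signal (Eu-W1024-PY100 donor, streptavidin-APC acceptor) read 1 h after EDTA quench. The kinase step ran 1 h at room temperature with 1 nM full-length SYK, 550 nM biotinylated DEEDYESP substrate and 100 μM ATP in Tris pH 7.5/MgCl2/DTT at 3% final DMSO.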
For CCc1ccc(Nc2nc(N[C@@H]3CCCC(F)(F)[C@@H]3N)cnc2C(N)=O)cn1 [Example 343, 5-((1R,2R)-2-amino-3,3-difluorocyclohexylamino)-3-(6-ethylpyridin-3-ylamino)pyrazine-2-carboxamide], the IC50 was 100 to 1000 nM.
In the case of CC(C)C[C@@H](Nc1cnc(C(N)=O)c(Nc2ccnc(C3CC3)c2)n1)C(N)=O [Example 344, (R)-5-(1-amino-4-methyl-1-oxopentan-2-ylamino)-3-(2-cyclopropylpyridin-4-ylamino)pyrazine-2-carboxamide], the IC50 is reported as under 1 nM.
Work on NC(=O)c1ncc(N[C@@H]2CCCC(F)(F)[C@@H]2N)nc1Nc1ccc(C2CC2)nc1 [Example 345, 5-((1R,2R)-2-amino-3,3-difluorocyclohexylamino)-3-(6-cyclopropylpyridin-3-ylamino)pyrazine-2-carboxamide] yielded an IC50 of 10 to 100 nM.
NC(=O)c1ncc(N[C@@H]2CCCC(F)(F)[C@@H]2N)nc1Nc1ccnc(C2CC2)c1 [Example 346, 5-((1R,2R)-2-amino-3,3-difluorocyclohexylamino)-3-(2-cyclopropylpyridin-4-ylamino)pyrazine-2-carboxamide] gave an IC50 of 1 to 10 nM.
CCc1ccc(Nc2nc(N[C@H](CC(C)C)C(N)=O)cnc2C(N)=O)cn1 [Example 347, (R)-5-(1-amino-4-methyl-1-oxopentan-2-ylamino)-3-(6-ethylpyridin-3-ylamino)pyrazine-2-carboxamide] was tested, and the IC50 was 1 to 10 nM.
With CC(C)C[C@@H](Nc1cnc(C(N)=O)c(Nc2ccc(C3CC3)nc2)n1)C(N)=O [Example 348, (R)-5-(1-amino-4-methyl-1-oxopentan-2-ylamino)-3-(6-cyclopropylpyridin-3-ylamino)pyrazine-2-carboxamide] the IC50 was 1 to 10 nM.
CC[C@@H](Nc1cnc(C(N)=O)c(Nc2ccnc(C(F)(F)F)c2)n1)C(N)=O [Example 349, (R)-5-(1-amino-1-oxobutan-2-ylamino)-3-(2-(trifluoromethyl)pyridin-4-ylamino)pyrazine-2-carboxamide] showed an IC50 of 10 to 100 nM.
For CCc1ccc(Nc2nc(N[C@@H]3CCCC[C@@H]3N)cnc2C(N)=O)cn1 [Example 350, 5-((1R,2S)-2-aminocyclohexylamino)-3-(6-ethylpyridin-3-ylamino)pyrazine-2-carboxamide], the IC50 was 1 to 10 nM.
In the case of NC(=O)c1ncc(N[C@@H]2CCCC[C@@H]2N)nc1Nc1ccc(C2CC2)nc1 [Example 351, 5-((1R,2S)-2-aminocyclohexylamino)-3-(6-cyclopropylpyridin-3-ylamino)pyrazine-2-carboxamide], the IC50 is reported as 1 to 10 nM.
With NC(=O)c1ncc(N[C@@H]2CCCC[C@@H]2N)nc1Nc1ccnc(C2CC2)c1 [Example 352, 5-((1R,2S)-2-aminocyclohexylamino)-3-(2-cyclopropylpyridin-4-ylamino)pyrazine-2-carboxamide] the IC50 was under 1 nM.
Molecule CC[C@@H](Nc1cnc(C(N)=O)c(Nc2ccnc(N(C)C)c2)n1)C(N)=O [Example 353, (R)-5-(1-amino-1-oxobutan-2-ylamino)-3-(2-(dimethylamino)pyridin-4-ylamino)pyrazine-2-carboxamide] has an IC50 of 1 to 10 nM.
Work on CC[C@@H](Nc1cnc(C(N)=O)c(Nc2ccnc(OC3CCC3)c2)n1)C(N)=O [Example 354, (R)-5-(1-amino-1-oxobutan-2-ylamino)-3-(2-cyclobutoxypyridin-4-ylamino)pyrazine-2-carboxamide] yielded an IC50 of 1 to 10 nM.
Work on CCc1cc(Nc2nc(N[C@@H]3CCCC(F)(F)[C@@H]3N)cnc2C(N)=O)ccn1 [Example 355, 5-((1R,2R)-2-amino-3,3-difluorocyclohexylamino)-3-(2-ethylpyridin-4-ylamino)pyrazine-2-carboxamide] yielded an IC50 of 10 to 100 nM.
With NC(=O)c1ncc(N[C@@H]2CCCC(F)(F)[C@@H]2N)nc1Nc1ccnc(OC2CCC2)c1 [Example 356, 5-((1R,2R)-2-amino-3,3-difluorocyclohexylamino)-3-(2-cyclobutoxypyridin-4-ylamino)pyrazine-2-carboxamide] the IC50 was 10 to 100 nM.
Molecule COc1cc(Nc2nc(N[C@@H]3CCOC[C@@H]3N)cnc2C(N)=O)ccn1 [Example 357, 5-((3R,4R)-3-aminotetrahydro-2H-pyran-4-ylamino)-3-(2-methoxypyridin-4-ylamino)pyrazine-2-carboxamide] has an IC50 of 1 to 10 nM.
Molecule COc1cncc(Nc2nc(N[C@@H]3CCOC[C@@H]3N)cnc2C(N)=O)c1 [Example 358, 5-((3R,4R)-3-aminotetrahydro-2H-pyran-4-ylamino)-3-(5-methoxypyridin-3-ylamino)pyrazine-2-carboxamide] has an IC50 of 1 to 10 nM.
Molecule CC[C@@H](Nc1cnc(C(N)=O)c(Nc2ccc(-c3cnn(C)c3)cc2)n1)C(N)=O [Example 359, (R)-5-(1-amino-1-oxobutan-2-ylamino)-3-(4-(1-methyl-1H-pyrazol-4-yl)phenylamino)pyrazine-2-carboxamide] has an IC50 of 1 to 10 nM.
Work on COC[C@@H](Nc1cnc(C(N)=O)c(Nc2ccc3ncccc3c2)n1)C(N)=O [Example 360, (R)-5-(1-amino-3-methoxy-1-oxopropan-2-ylamino)-3-(quinolin-6-ylamino)pyrazine-2-carboxamide] yielded an IC50 of 10 to 100 nM.
NC(=O)c1ncc(N[C@H](Cc2ccncc2)C(N)=O)nc1Nc1ccc2ncccc2c1 [Example 361, (R)-5-(1-amino-1-oxo-3-(pyridin-4-yl)propan-2-ylamino)-3-(quinolin-6-ylamino)pyrazine-2-carboxamide] showed an IC50 of 10 to 100 nM.
NC(=O)c1ncc(NC2(C(N)=O)CC2)nc1Nc1cnc2ccccc2c1 [Example 362, 5-(1-carbamoylcyclopropylamino)-3-(quinolin-3-ylamino)pyrazine-2-carboxamide] showed an IC50 of 10 to 100 nM.
With NC(=O)c1ncc(N[C@@H]2CCCC(F)(F)[C@@H]2N)nc1Nc1cncc2ccccc12 [Example 363, 5-((1R,2R)-2-amino-3,3-difluorocyclohexylamino)-3-(isoquinolin-4-ylamino)pyrazine-2-carboxamide] the IC50 was 10 to 100 nM.
NC(=O)c1ncc(N[C@@H]2CCCC(F)(F)[C@@H]2N)nc1Nc1ccc2cnccc2c1 [Example 364, 5-((1R,2R)-2-amino-3,3-difluorocyclohexylamino)-3-(isoquinolin-6-ylamino)pyrazine-2-carboxamide] was tested, and the IC50 was 1 to 10 nM.
With NC(=O)c1ncc(N[C@@H]2CCCC(F)(F)[C@@H]2N)nc1Nc1ccc2nccnc2c1 [Example 365, 5-((1R,2R)-2-amino-3,3-difluorocyclohexylamino)-3-(quinoxalin-6-ylamino)pyrazine-2-carboxamide] the IC50 was 10 to 100 nM.
For NC(=O)c1ncc(N[C@@H]2CCCC(F)(F)[C@@H]2N)nc1Nc1ccnc2ccccc12 [Example 366, 5-((1R,2R)-2-amino-3,3-difluorocyclohexylamino)-3-(quinolin-4-ylamino)pyrazine-2-carboxamide], the IC50 was 10 to 100 nM.
With CC[C@@H](Nc1cnc(C(N)=O)c(Nc2cncc3ccccc23)n1)C(N)=O [Example 367, (R)-5-(1-amino-1-oxobutan-2-ylamino)-3-(isoquinolin-4-ylamino)pyrazine-2-carboxamide] the IC50 was 1 to 10 nM.
CC[C@@H](Nc1cnc(C(N)=O)c(Nc2ccc3cnccc3c2)n1)C(N)=O [Example 368, (R)-5-(1-amino-1-oxobutan-2-ylamino)-3-(isoquinolin-6-ylamino)pyrazine-2-carboxamide] gave an IC50 of 1 to 10 nM.
CC[C@@H](Nc1cnc(C(N)=O)c(Nc2ccc3nccnc3c2)n1)C(N)=O [Example 369, (R)-5-(1-amino-1-oxobutan-2-ylamino)-3-(quinoxalin-6-ylamino)pyrazine-2-carboxamide] was tested, and the IC50 was 1 to 10 nM.
CC[C@@H](Nc1cnc(C(N)=O)c(Nc2ccnc3ccccc23)n1)C(N)=O [Example 370, (R)-5-(1-amino-1-oxobutan-2-ylamino)-3-(quinolin-4-ylamino)pyrazine-2-carboxamide] showed an IC50 of 1 to 10 nM.
Molecule NC(=O)c1ncc(N[C@@H]2CCCC(F)(F)[C@@H]2N)nc1Nc1cccnc1 [Example 371, 5-((1R,2R)-2-amino-3,3-difluorocyclohexylamino)-3-(pyridin-3-ylamino)pyrazine-2-carboxamide] has an IC50 of 10 to 100 nM.
With NC(=O)c1ncc(N[C@@H]2CCCC(F)(F)[C@@H]2N)nc1Nc1cccc(F)c1 [Example 372, 5-((1R,2R)-2-amino-3,3-difluorocyclohexylamino)-3-(3-fluorophenylamino)pyrazine-2-carboxamide] the IC50 was 10 to 100 nM.
Work on CC[C@@H](Nc1cnc(C(N)=O)c(Nc2cc(C)ns2)n1)C(N)=O [Example 373, (R)-5-(1-amino-1-oxobutan-2-ylamino)-3-(3-methylisothiazol-5-ylamino)pyrazine-2-carboxamide] yielded an IC50 of 1 to 10 nM.
Cc1cc(Nc2nc(N[C@H](CC3CC3)C(N)=O)cnc2C(N)=O)sn1 [Example 374, (R)-5-(1-amino-3-cyclopropyl-1-oxopropan-2-ylamino)-3-(3-methylisothiazol-5-ylamino)pyrazine-2-carboxamide] showed an IC50 of 1 to 10 nM.
In the case of CC[C@@H](Nc1cnc(C(N)=O)c(Nc2cccc3ncccc23)n1)C(N)=O [Example 375, (R)-5-(1-amino-1-oxobutan-2-ylamino)-3-(quinolin-5-ylamino)pyrazine-2-carboxamide], the IC50 is reported as 1 to 10 nM.
CC[C@@H](Nc1cnc(C(N)=O)c(Nc2ccc3cccnc3c2)n1)C(N)=O [Example 376, (R)-5-(1-amino-1-oxobutan-2-ylamino)-3-(quinolin-7-ylamino)pyrazine-2-carboxamide] was tested, and the IC50 was 1 to 10 nM.
Molecule CC[C@@H](Nc1cnc(C(N)=O)c(Nc2cccc3ccncc23)n1)C(N)=O [Example 377, (R)-5-(1-amino-1-oxobutan-2-ylamino)-3-(isoquinolin-8-ylamino)pyrazine-2-carboxamide] has an IC50 of 100 to 1000 nM.
Work on CC[C@@H](Nc1cnc(C(N)=O)c(Nc2cccc3cnccc23)n1)C(N)=O [Example 378, (R)-5-(1-amino-1-oxobutan-2-ylamino)-3-(isoquinolin-5-ylamino)pyrazine-2-carboxamide] yielded an IC50 of 10 to 100 nM.
With CC[C@@H](Nc1cnc(C(N)=O)c(Nc2ccc3ccncc3c2)n1)C(N)=O [Example 379, (R)-5-(1-amino-1-oxobutan-2-ylamino)-3-(isoquinolin-7-ylamino)pyrazine-2-carboxamide] the IC50 was 1 to 10 nM.
